# Measured values taken from paper PMC7176092, “Development of the first in vivo GPR17 ligand through an iterative drug discovery pipeline: A novel disease-modifying strategy for multiple sclerosis” (PLoS ONE, 2020).
# Where “and” joins values, the source holds several entries; their conditions need not be identical. Equal values may be shown once. Read-outs that look alike come from different tables or passages of the source.
# How the values were obtained:
# CCR9 = target: T1, CCR9 (Homo sapiens, UniProt P51686); assay: Cellular functional assay CCR9
# T1 sequence (P51686 1-369): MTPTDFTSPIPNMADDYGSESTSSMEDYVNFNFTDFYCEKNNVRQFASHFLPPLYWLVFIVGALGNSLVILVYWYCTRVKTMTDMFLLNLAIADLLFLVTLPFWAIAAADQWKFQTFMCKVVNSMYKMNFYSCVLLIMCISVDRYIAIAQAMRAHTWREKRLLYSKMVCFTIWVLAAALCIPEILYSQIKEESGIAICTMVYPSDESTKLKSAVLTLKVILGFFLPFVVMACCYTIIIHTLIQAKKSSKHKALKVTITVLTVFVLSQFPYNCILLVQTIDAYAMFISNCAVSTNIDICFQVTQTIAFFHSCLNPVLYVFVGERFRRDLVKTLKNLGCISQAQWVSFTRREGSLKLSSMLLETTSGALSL
# M1 = target: T2, M1 (Homo sapiens, UniProt P11229); assay: Binding assay M1; settings: 100 nM
# T2 construct: Eurofins Cerep (external service)
# T2 sequence (P11229 1-460): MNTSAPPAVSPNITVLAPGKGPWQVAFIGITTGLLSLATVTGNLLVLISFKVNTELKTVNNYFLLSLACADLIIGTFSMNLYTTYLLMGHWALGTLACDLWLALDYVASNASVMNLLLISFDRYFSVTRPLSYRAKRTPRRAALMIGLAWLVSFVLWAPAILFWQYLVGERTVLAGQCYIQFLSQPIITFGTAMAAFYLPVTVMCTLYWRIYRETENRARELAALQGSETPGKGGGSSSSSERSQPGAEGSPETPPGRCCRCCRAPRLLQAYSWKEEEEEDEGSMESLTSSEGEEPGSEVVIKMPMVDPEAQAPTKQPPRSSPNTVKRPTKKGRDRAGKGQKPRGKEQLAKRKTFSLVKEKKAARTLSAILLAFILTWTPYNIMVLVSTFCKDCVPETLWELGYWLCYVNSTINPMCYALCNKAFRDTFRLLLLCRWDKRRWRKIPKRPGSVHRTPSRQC
# ADR1 = target: T3, ADR1 (Homo sapiens, UniProt P08588); assay: Binding assay ADR1 (reference atenolol); settings: 100 nM
# T3 construct: Eurofins Cerep (external service)
# ADR1D = target: T4, ADR1D (Homo sapiens, UniProt P25100); assay: Binding assay ADR1D; settings: 100 nM
# T4 construct: Eurofins Cerep (external service)
# T4 sequence (P25100 1-572): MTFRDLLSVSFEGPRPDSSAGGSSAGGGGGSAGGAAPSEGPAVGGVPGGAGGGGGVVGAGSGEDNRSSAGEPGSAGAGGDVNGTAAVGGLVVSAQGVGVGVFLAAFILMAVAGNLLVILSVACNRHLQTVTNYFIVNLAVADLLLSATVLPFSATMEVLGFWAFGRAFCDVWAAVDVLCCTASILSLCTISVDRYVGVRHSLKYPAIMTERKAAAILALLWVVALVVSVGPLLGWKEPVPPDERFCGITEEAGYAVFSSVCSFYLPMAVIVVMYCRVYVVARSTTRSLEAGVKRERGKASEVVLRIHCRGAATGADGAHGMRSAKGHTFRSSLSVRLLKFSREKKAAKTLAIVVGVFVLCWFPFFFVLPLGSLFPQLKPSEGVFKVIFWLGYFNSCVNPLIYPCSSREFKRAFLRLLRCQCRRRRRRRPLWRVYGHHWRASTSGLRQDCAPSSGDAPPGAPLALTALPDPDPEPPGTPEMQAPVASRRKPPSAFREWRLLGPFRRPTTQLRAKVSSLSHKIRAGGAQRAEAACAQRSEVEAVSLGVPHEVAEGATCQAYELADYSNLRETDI
# CysLT1 = target: T5, CysLT1 (Homo sapiens, UniProt Q9Y271); assay: Binding assay CysLT1; settings: 100 nM
# T5 construct: Eurofins Cerep (external service)
# T5 sequence (Q9Y271 1-337): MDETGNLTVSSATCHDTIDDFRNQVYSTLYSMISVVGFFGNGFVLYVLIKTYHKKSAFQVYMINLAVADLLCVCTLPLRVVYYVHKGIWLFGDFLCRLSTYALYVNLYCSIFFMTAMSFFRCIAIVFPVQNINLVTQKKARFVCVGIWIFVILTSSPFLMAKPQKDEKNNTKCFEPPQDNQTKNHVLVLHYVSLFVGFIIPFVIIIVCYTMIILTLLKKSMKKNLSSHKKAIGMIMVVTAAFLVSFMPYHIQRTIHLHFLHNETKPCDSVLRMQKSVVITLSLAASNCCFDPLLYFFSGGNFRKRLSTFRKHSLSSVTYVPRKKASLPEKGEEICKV
# CCR6 = target: T6, CCR6 (Homo sapiens, UniProt P51684); assay: Cellular functional assay CCR6
# T6 sequence (P51684 1-374): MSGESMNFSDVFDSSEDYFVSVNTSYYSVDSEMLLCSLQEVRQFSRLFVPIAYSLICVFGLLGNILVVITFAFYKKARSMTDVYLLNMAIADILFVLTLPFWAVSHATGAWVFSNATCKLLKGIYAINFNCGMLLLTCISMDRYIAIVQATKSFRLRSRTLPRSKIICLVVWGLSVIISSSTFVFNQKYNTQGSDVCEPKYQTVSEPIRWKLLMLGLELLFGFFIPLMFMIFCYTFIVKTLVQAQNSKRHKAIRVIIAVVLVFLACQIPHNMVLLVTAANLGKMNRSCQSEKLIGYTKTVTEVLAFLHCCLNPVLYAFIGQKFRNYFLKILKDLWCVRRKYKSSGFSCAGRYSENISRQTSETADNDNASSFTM
# CCR2 = target: T7, CCR2 (Homo sapiens, UniProt P41597); assay: Binding assay CCR2; settings: 100 nM
# T7 construct: Eurofins Cerep (external service)
# mGluR1 = target: T8, mGluR1 (Homo sapiens, UniProt Q13255); assay: Binding assay mGluR1; settings: 100 nM
# T8 construct: Eurofins Cerep (external service)
# [1] = antagonist effect, 100 nM, single replicates 1st and 2nd, 0.1 µM
# [2] = read-out: % Inhibition of control agonist response
# [3] = read-out: Agonist Response (% of Control), Mean, antagonist effect, 100 nM, mean of 2
# [4] = read-out: Agonist Response (% of Control), antagonist effect, 100 nM, single replicates 1st and 2nd
# [5] = mean of 2, read-out: % Of control specific binding, Mean
# [6] = read-out: % Inhibition of control specific binding
# [7] = single replicates 1 and 2, 0.1 µM
# [8] = single replicates 1 and 2, read-out: % Of control specific binding
# T8 sequence (Q13255 19-1194): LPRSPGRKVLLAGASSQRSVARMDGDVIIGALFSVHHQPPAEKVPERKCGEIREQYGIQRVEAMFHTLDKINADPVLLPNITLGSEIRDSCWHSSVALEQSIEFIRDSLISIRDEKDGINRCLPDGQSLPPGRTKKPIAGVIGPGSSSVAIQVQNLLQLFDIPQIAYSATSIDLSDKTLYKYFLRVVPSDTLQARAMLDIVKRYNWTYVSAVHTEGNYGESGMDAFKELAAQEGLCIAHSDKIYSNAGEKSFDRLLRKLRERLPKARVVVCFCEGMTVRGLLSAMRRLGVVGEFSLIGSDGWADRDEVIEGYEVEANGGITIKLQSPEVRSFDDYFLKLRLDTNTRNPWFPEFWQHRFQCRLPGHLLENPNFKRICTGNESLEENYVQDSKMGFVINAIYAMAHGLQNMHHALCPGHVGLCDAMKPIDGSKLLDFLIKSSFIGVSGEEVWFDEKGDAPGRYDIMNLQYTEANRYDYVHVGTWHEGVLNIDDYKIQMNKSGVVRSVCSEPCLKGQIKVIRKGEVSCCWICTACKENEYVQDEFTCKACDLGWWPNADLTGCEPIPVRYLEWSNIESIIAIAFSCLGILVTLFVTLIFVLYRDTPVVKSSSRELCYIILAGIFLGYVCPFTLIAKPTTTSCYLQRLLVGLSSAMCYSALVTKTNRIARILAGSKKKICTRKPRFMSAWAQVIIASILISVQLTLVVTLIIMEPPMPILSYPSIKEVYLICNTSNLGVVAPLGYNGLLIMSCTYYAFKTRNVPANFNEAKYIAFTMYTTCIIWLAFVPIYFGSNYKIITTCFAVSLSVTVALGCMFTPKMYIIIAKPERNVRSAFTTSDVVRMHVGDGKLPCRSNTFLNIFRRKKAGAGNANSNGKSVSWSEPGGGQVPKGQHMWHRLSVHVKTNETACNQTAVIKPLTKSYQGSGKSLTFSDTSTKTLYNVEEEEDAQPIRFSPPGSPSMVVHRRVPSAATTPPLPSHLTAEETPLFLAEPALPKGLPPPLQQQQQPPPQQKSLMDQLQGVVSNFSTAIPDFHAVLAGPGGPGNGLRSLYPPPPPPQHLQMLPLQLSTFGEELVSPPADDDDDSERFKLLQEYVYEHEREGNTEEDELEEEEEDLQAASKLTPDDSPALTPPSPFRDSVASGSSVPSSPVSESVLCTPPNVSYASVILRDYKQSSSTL
# T3 sequence (P08588 whole entry): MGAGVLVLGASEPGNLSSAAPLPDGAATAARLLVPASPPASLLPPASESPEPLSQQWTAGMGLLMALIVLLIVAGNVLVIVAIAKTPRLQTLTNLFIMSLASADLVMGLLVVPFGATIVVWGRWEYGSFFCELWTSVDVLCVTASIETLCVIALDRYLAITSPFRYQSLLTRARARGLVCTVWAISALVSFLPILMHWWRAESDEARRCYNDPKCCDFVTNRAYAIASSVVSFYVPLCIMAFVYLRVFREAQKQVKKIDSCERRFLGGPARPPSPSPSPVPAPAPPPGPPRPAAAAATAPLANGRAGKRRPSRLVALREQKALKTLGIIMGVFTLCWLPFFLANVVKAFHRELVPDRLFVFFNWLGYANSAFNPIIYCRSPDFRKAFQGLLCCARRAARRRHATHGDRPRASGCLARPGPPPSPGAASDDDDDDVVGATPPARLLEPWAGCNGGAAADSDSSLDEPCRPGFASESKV
# T7 sequence (P41597 whole entry): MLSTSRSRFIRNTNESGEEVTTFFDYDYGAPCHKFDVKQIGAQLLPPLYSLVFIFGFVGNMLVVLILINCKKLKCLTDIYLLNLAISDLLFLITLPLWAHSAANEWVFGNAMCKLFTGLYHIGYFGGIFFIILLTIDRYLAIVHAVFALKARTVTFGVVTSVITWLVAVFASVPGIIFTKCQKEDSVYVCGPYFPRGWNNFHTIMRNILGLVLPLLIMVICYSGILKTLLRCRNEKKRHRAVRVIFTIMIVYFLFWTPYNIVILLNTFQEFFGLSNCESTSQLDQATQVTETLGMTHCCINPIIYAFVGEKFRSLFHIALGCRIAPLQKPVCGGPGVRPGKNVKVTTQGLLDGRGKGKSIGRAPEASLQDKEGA
smiles,measurement,setting,value
Cc1ccc(-c2nnc(SCC(=O)Nc3nccs3)[nH]2)cc1 [Compound 9],Agonist Response (% of Control),CCR9; [1],95.2%
same,inhibition at 0.1 µM,CCR9; [2],0.1%
same,activity at 0.1 µM,CCR9; [3],102%
same,activity at 0.1 µM,CCR9; [4],108%
same,remaining activity at 0.1 µM,M1; [5],108%
same,inhibition at 0.1 µM,M1; [6],-8%
same,% Of control specific binding,M1; [7],110.2%
same,remaining activity at 0.1 µM,M1; [8],105%
same,remaining activity at 0.1 µM,ADR1; [5],91.5%
same,inhibition at 0.1 µM,ADR1; [6],9%
same,% Of control specific binding,ADR1; [7],88.9%
same,remaining activity at 0.1 µM,ADR1; [8],94%
same,remaining activity at 0.1 µM,ADR1D; [5],101%
same,inhibition at 0.1 µM,ADR1D; [6],-1%
same,% Of control specific binding,ADR1D; [7],90.2% and 111.5%
same,remaining activity at 0.1 µM,CysLT1; [5],97.6%
same,inhibition at 0.1 µM,CysLT1; [6],2%
same,% Of control specific binding,CysLT1; [7],105.4%
same,remaining activity at 0.1 µM,CysLT1; [8],89.7%
same,Agonist Response (% of Control),CCR6; [1],105.9%
same,inhibition at 0.1 µM,CCR6; [2],-0.3%
same,activity at 0.1 µM,CCR6; [3],106%
same,activity at 0.1 µM,CCR6; [4],105%
same,remaining activity at 0.1 µM,CCR2; [5],88.4%
same,inhibition at 0.1 µM,CCR2; [6],12%
same,% Of control specific binding,CCR2; [7],88.9%
same,remaining activity at 0.1 µM,CCR2; [8],88%
same,remaining activity at 0.1 µM,mGluR1; [5],114%
same,inhibition at 0.1 µM,mGluR1; [6],-14%
same,% Of control specific binding,mGluR1; [7],103.5% and 124.2%
